Laboratory results as given in patent US9315494B2, “Alkyl-amide-substituted pyridyl compounds useful as modulators of IL-12, IL-23 and/or IFNα responses” (Bristol-Myers Squibb Company, priority 2012, dated 2016).

What was measured:
[1] = test system: IL-23-stimulated STAT-dependent luciferase reporter in Kit225 T cells; experiment: Kit225 T cell assay, IL-23 stimulated STAT-dependent luciferase reporter; assay type: cell-based, human; conditions: Kit225 T cells, 20 ng/mL human recombinant IL-23, 5-6 hours, luciferase; read-out: IL23 (Kit225 T Cell Inhibition Data)
Description: (§1) Kit225 T cells with a stably-integrated STAT-dependent luciferase reporter were plated in RPMI (Gibco) containing 10% heat-inactivated FBS (Gibco) and 100 U/mL PenStrep (Gibco). The cells were then stimulated with either 20 ng/mL human recombinant IL-23 or 200 U/mL human recombinant IFNα (PBL InterferonSource) for 5-6 hours. Luciferase expression was measured using the STEADY-GLO® Luciferase Assay System (Promega) according to the manufacturer's instructions.

[2] = test system: IFNα-stimulated STAT-dependent luciferase reporter in Kit225 T cells; experiment: Kit225 T cell assay, IFNα stimulated STAT-dependent luciferase reporter; assay type: cell-based, human; conditions: Kit225 T cells, 200 U/mL human recombinant IFNα, 5-6 hours, luciferase; read-out: IFNα (Kit225 T Cell Inhibition Data)
Description: as §1

Structure (SMILES)	IC50 [1] [nM]	IC50 [2] [nM]
CNC(=O)c1cnc(Nc2cccc(C)n2)cc1Nc1ccccc1C(N)=O [Example 67]	263	140
CNC(=O)c1cnc(Nc2ccccn2)cc1Nc1ccccc1C(N)=O [Example 68]	502	240
CNC(=O)c1cnc(Nc2ncccc2F)cc1Nc1ccccc1C(N)=O [Example 69]	1470	1310
CNC(=O)c1cnc(Nc2ccc(OC)cn2)cc1Nc1ccccc1C(N)=O [Example 70]	820	730
CNC(=O)c1cnc(Nc2cc(F)ccn2)cc1Nc1ccccc1C(N)=O [Example 71]	574	760
CNC(=O)c1cnc(Nc2ccc(C)cn2)cc1Nc1ccccc1C(N)=O [Example 72]	578	380
CNC(=O)c1cnc(Nc2cccc(F)n2)cc1Nc1ccccc1C(N)=O [Example 74]	236	260
CNC(=O)c1cnc(Nc2cc(-c3ccccc3)ccn2)cc1Nc1ccccc1C(N)=O [Example 75]	2030	1730
CNC(=O)c1cnc(Nc2ccc(-c3ccccc3)cn2)cc1Nc1ccccc1C(N)=O [Example 76]	854	740
CNC(=O)c1cnc(Nc2cccc(-c3ccccc3)n2)cc1Nc1ccccc1C(N)=O [Example 77]	538	350
CNC(=O)c1cnc(Nc2cc(C)ccn2)cc1Nc1ccccc1C(N)=O [Example 78]	388	120
CNC(=O)c1cnc(Nc2ccc(C(F)(F)F)cn2)cc1Nc1ccccc1C(N)=O [Example 82]	1230	780
CNC(=O)c1cnc(Nc2ncccc2C)cc1Nc1ccccc1C(N)=O [Example 83]	5720	6940
CNC(=O)c1cnc(Nc2cc(C#N)ccn2)cc1Nc1ccccc1C(N)=O [Example 84]	369	350
CNC(=O)c1cnc(Nc2ccc(N3CCOCC3)cn2)cc1Nc1ccccc1C(N)=O [Example 85]	1040	630
CNC(=O)c1cnc(Nc2ccc(C#N)c(C)n2)cc1Nc1ccccc1C(N)=O [Example 86]	1820	430
CNC(=O)c1cnc(Nc2ccc(S(=O)(=O)N(C)C)cn2)cc1Nc1ccccc1C(N)=O [Example 88]	2860	890
CNC(=O)c1cnc(Nc2cc3ccccc3cn2)cc1Nc1ccccc1C(N)=O [Example 89]	343	370
CNC(=O)c1cnc(Nc2ncccc2Cl)cc1Nc1ccccc1C(N)=O [Example 90]	7200	8260
CNC(=O)c1cnc(Nc2cc(C(F)(F)F)ccn2)cc1Nc1ccccc1C(N)=O [Example 91]	567	420
CNC(=O)c1cnc(Nc2ccc(C#N)cn2)cc1Nc1ccccc1C(N)=O [Example 92]	3930	1540
CNC(=O)c1cnc(Nc2cccc(C(F)(F)F)n2)cc1Nc1ccccc1C(N)=O [Example 95]	960	680
CNC(=O)c1cnc(Nc2ccc(F)cn2)cc1Nc1ccc(F)c(F)c1OC [Example 96]	257	210

Structure (SMILES)	IC50 [1] [nM]	IC50 [2] [nM]
CNC(=O)c1cnc(Nc2cc(C(N)=O)ccn2)cc1Nc1ccc(Cl)cc1OC [Example 97]	3910	3250
CNC(=O)c1cnc(Nc2ccc(-n3ccccc3=O)cn2)cc1Nc1ccc(Cl)cc1OC [Example 98]	480	280
CNC(=O)c1cnc(Nc2ccc(F)cn2)cc1Nc1ccc(Cl)cc1OC [Example 99]	479	310
CNC(=O)c1cnc(Nc2cc(C)ccn2)cc1Nc1ccc(F)c(F)c1OC [Example 100]	158	120
CNC(=O)c1cnc(Nc2ccc(N3CCOCC3)cn2)cc1Nc1ccc(F)c(F)c1OC [Example 101]	200	80
CNC(=O)c1cnc(Nc2ccc(N3C(=O)COCC3C)cn2)cc1Nc1ccc(Cl)cc1OC (centres unmarked) [Example 102]	368	150
CNC(=O)c1cnc(Nc2ccc(N3CCCCC3=O)cn2)cc1Nc1ccc(Cl)cc1OC [Example 103]	398	330
CNC(=O)c1cnc(Nc2ccc(N3CCOC3=O)cn2)cc1Nc1ccc(Cl)cc1OC [Example 105]	386	190
CNC(=O)c1cnc(Nc2ccc(-n3cc(F)ccc3=O)cn2)cc1Nc1ccc(Cl)cc1OC [Example 106]	439	180
CNC(=O)c1cnc(Nc2cccc(OC)n2)cc1Nc1ccc(Cl)cc1OC [Example 108]	369	230
CNC(=O)c1cnc(Nc2cccc(C)n2)cc1Nc1ccc(Cl)cc1OC [Example 109]	948	210
CNC(=O)c1cnc(Nc2ccccn2)cc1Nc1ccc(Cl)cc1OC [Example 110]	998	420
CNC(=O)c1cnc(Nc2ccc(C)cn2)cc1Nc1ccc(Cl)cc1OC [Example 111]	1300	990
CNC(=O)c1cnc(Nc2ccc(OC)cn2)cc1Nc1ccc(Cl)cc1OC [Example 112]	717	400
CNC(=O)c1cnc(Nc2cc(C)ccn2)cc1Nc1ccc(Cl)cc1OC [Example 113]	876	200
CNC(=O)c1cnc(Nc2ccc3[nH]ccc3n2)cc1Nc1ccc(Cl)cc1OC [Example 114]	4550	1540
CNC(=O)c1cnc(Nc2cc(F)ccn2)cc1Nc1ccc(Cl)cc1OC [Example 115]	632	440
CNC(=O)c1cnc(Nc2cccc(-c3ccccc3)n2)cc1Nc1ccc(Cl)cc1OC [Example 116]	2190	750
CNC(=O)c1cnc(Nc2cccc(C(F)(F)F)n2)cc1Nc1ccc(Cl)cc1OC [Example 117]	1980	480
CNC(=O)c1cnc(Nc2ccc(C#N)c(C)n2)cc1Nc1ccc(Cl)cc1OC [Example 118]	1160	570
CNC(=O)c1cnc(Nc2ccc(F)cn2)cc1Nc1ccc(F)cc1OC [Example 119]	2200	860
CNC(=O)c1cnc(Nc2ccc(C(F)(F)F)cn2)cc1Nc1ccc(Cl)cc1OC [Example 120]	4510	1880
CNC(=O)c1cnc(Nc2cc(C#N)ccn2)cc1Nc1ccc(Cl)cc1OC [Example 121]	244	150

Structure (SMILES)	IC50 [1] [nM]	IC50 [2] [nM]
CNC(=O)c1cnc(Nc2ccc(F)cn2)cc1Nc1ccccc1OC(F)F [Example 122]	535	250
CNC(=O)c1cnc(Nc2ccc(F)cn2)cc1Nc1cccc2c1OC(F)(F)O2 [Example 123]	8790	11100
CNC(=O)c1cnc(Nc2ccc(C#N)cn2)cc1Nc1ccc(F)cc1OC [Example 124]	462	640
CNC(=O)c1cnc(Nc2ccc(-n3cc(F)ccc3=O)cn2)cc1Nc1ccc(F)cc1OC [Example 126]	830	700
CNC(=O)c1cnc(Nc2ccc(N3CCCC3=O)cn2)cc1Nc1ccc(F)cc1OC [Example 127]	852	470
CNC(=O)c1cnc(Nc2cc(C)ccn2)cc1Nc1cc(F)cc(F)c1OC [Example 129]	86.6	80
CNC(=O)c1cnc(Nc2cccc(OC)n2)cc1Nc1cc(F)cc(F)c1OC [Example 130]	119	50
CNC(=O)c1cnc(Nc2ccccn2)cc1Nc1cc(F)cc(F)c1OC [Example 131]	183	60
CNC(=O)c1cnc(Nc2cccc(C)n2)cc1Nc1cc(F)cc(F)c1OC [Example 132]	187	120
CNC(=O)c1cnc(Nc2ccc(OC)cn2)cc1Nc1cc(F)cc(F)c1OC [Example 133]	179	70
CNC(=O)c1cnc(Nc2ccc(C(F)(F)F)cn2)cc1Nc1cc(F)cc(F)c1OC [Example 135]	3420	1530
CNC(=O)c1cnc(Nc2cc3ccccc3cn2)cc1Nc1cc(F)cc(F)c1OC [Example 136]	747	390
CNC(=O)c1cnc(Nc2cc(F)ccn2)cc1Nc1cc(F)cc(F)c1OC [Example 137]	188	210
CNC(=O)c1cnc(Nc2cccc(C(F)(F)F)n2)cc1Nc1cc(F)cc(F)c1OC [Example 138]	354	220
CNC(=O)c1cnc(Nc2ccc(C#N)c(C)n2)cc1Nc1cc(F)cc(F)c1OC [Example 139]	367	180
CNC(=O)c1cnc(Nc2cc(C)c(C#N)c(C)n2)cc1Nc1cc(F)cc(F)c1OC [Example 140]	281	120
CCc1cccc(Nc2cc(Nc3cc(F)cc(F)c3OC)c(C(=O)NC)cn2)n1 [Example 141]	401	350
CNC(=O)c1cnc(Nc2ccc(N3CCCC3=O)cn2)cc1Nc1ccc(F)cc1OCF [Example 142]	742	410
CNC(=O)c1cnc(Nc2cccc(-c3ccccc3)n2)cc1Nc1cc(F)cc(F)c1OC [Example 143]	783	560
CNC(=O)c1cnc(Nc2ccc(C#N)cn2)cc1Nc1cc(F)cc(F)c1OC [Example 145]	794	420
CNC(=O)c1cnc(Nc2cc3ccccc3cn2)cc1Nc1ccc(F)cc1OC [Example 146]	2160	1450
